Experimental findings from US6887896B1, “7-[(7-Alkoxy)-chrom-3-en-6-yl]-heptatrienoic acid and 7-[(3-alkoxy)-5,6-dihydronaphthalen-2-yl]-heptatrienoic acid derivatives having serum glucose reducing activity” (Allergan, Inc., priority 2003, dated 2005) are described below.

Series [1] relates to ob/ob mice. Kind of series: serum glucose, triglycerides and T4 in ob/ob mice, drug mixed in control diet over 7 days. As to conditions: 2.5 mg/kg per day in diet. Type of series: in vivo.
The test system of series [2] is ob/ob mice. Briefly: serum glucose, triglycerides and T4 in diabetic mice, oral gavage in corn oil daily for seven days. The series is classed as in vivo. The conditions noted are these: for Glucose Day 0 / Triglycerides Day 0: day 0 (pre-treatment).
[3] abbreviates: 4 mg/kg, corn oil vehicle (second Table 9).
Setting [4] is: 5 mg/kg, corn oil vehicle (Table 7).

As for `CC(/C=C/[C@@H]1C[C@]1(C)c1ccc2c(c1)C(C)(C)CCC2(C)C)=C\C(=O)O` [Standard compound, (2E,4E,1′S,2′S)-3-methyl-5-[2′-methyl-2′-(5,5,8,8-tetramethyl-5,6,7,8-tetrahydro-naphthalen-2-yl)-cyclopropyl]-penta-2,4-dienoic acid], in the series on ob/ob mice [1], the “Glucose Day 3, 3 h” value is 107 mg/dL; the “Glucose Day 6, 3 h” value was 136 mg/dL; the “T4 Day 7” value worked out at 0.8 µg/dL; the “Triglycerides Day 3, 3 h” value is 55 ± 23 mg/dL. In addition, in the series on ob/ob mice [1] (day 0 (pre-treatment)), the “Glucose Day 0” value came to 246 mg/dL and the “Triglycerides Day 0” value came to 92 ± 41 mg/dL. For the same molecule, in the series on ob/ob mice [2] (setting [3]), the “Glucose Day 3, 3 h” value turned out to be 312 mg/dL; the “Glucose Day 6, 3 h” value is 291 mg/dL; the “T4 Day 7” value amounted to 0.5 µg/dL; the “Triglycerides Day 3, 3 h” value came to 309 mg/dL. Further, in the series on ob/ob mice [2] (setting [3]), the “Glucose Day 0” value stood at 544 mg/dL and the “Triglycerides Day 0” value was 261 mg/dL. In addition, in the series on ob/ob mice [2] (setting [4]), the “Glucose Day 3, 3 h” value stood at 301 mg/dL; the “Glucose Day 6, 3 h” value is 218 mg/dL; the “T4 Day 7” value worked out at 2.7 µg/dL; the “Triglycerides Day 3, 3 h” value was determined as 147 mg/dL. For the same molecule, in the series with ob/ob mice [2] (setting [4]), the “Glucose Day 0” value was determined as 389 mg/dL and the “Triglycerides Day 0” value was 149 mg/dL. Besides, the “serum thyroxine levels (in words)” value with ob/ob mice [2] (diabetic mammals) is on record as “undesirable side effect of reducing serum thyroxine levels”.
